pIC50: −log10 of the molar value. Strand notation (5' to 3'): a small letter for the sugar, then the base; units joined by * are phosphorothioate-linked, units joined directly phosphodiester-linked; [ ] holds rarer units or linkages, { } end groups; capitals alone tell only the bases. e = 2'-O-(2-methoxyethyl) (MOE); [5mC] = 5-methylcytosine; d = 2'-deoxy (DNA)
Legend:
human SMAD7 mRNA [1] = experiment: Antisense inhibition of human SMAD7 mRNA expression in Hep3B cells by 5-10-5 MOE gapmers, single concentration, electroporation, RT-PCR (Example 1, Study 1 and 2); format: cell-based; details: for % Inhibition: Study 2, electroporation with 15,000 nM antisense oligonucleotide
Method in brief: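 Readout is percent SMAD7 mRNA inhibition versus untreated cells, measured by qRT-PCR (RTS5062) and corrected for total RNA by RIBOGREEN. Oligonucleotide, 5,000 nM or 15,000 nM, was delivered by electroporation into Hep3B cells at 20,000 per well. RNA was collected about 24 h later.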

human SMAD7 mRNA [2] = experiment: Dose-dependent inhibition of human SMAD7 mRNA expression in Hep3B cells (Example 3, Study 1 and 2); format: cell-based; details: electroporation; for % inhibition of SMAD7 mRNA expression: approximately 16 hours; for pIC50: Study 1 (312.5-20000 nM)
Method in brief: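 Hep3B cells, 20,000 per well, electroporated with antisense oligonucleotide at 0.31, 1.25, 5.00 or 20.00 μM (first series) or 0.74, 2.22, 6.67 or 20.00 μM (second series). After ~16 h, SMAD7 mRNA measured by RT-qPCR (RTS5062), normalised to RIBOGREEN total RNA. Percent inhibition vs untreated cells; IC50 derived.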

[3] = 5-10-5 MOE gapmers targeting SEQ ID NO: 1 and 2
[4] = 312.5 nM, Study 1, relative to untreated control cells
[5] = electroporation, 15,000 nM antisense oligonucleotide (Study 2), 5-10-5 MOE gapmers targeting SEQ ID NO: 1 and 2
[6] = electroporation, 5,000 nM, approximately 24 hours, relative to untreated control cells, gapmers targeting SEQ ID NO: 1 and 2
[7] = electroporation, 15,000 nM, approximately 24 hours, relative to untreated control cells, gapmers targeting SEQ ID NO: 1 and 2

Row | Substance | % Inhibition (human SMAD7 mRNA [1]; [3]) | % inhibition of SMAD7 mRNA expression (human SMAD7 mRNA [2]; [4]) | % inhibition of SMAD7 mRNA expression (human SMAD7 mRNA [2]; 1250.0 nM, Study 1) | % inhibition of SMAD7 mRNA expression (human SMAD7 mRNA [2]; 5000.0 nM, Study 1) | % inhibition of SMAD7 mRNA expression (human SMAD7 mRNA [2]; 20000.0 nM, Study 1) | pIC50 (human SMAD7 mRNA [2]) | % inhibition of SMAD7 mRNA expression (human SMAD7 mRNA [1]; [5]) | % inhibition of SMAD7 mRNA expression (human SMAD7 mRNA [1]; [6]) | % inhibition of SMAD7 mRNA expression (human SMAD7 mRNA [1]; [7]) | % Inhibition of SMAD7 mRNA (human SMAD7 mRNA [1]; electroporation with 15,000 nM antisense oligonucleotide (Study 2), 5-10-5 MOE gapmers targeting SEQ ID NO: 1 and 2)
1 | 771782 (antisense eT*eA*eG*eG*eA*d[5mC]*dT*dG*dG*dA*dA*dG*dA*dG*d[5mC]*eT*eT*eT*eG*eG) [compound 771782] | 50% | 0% | 9% | 27% | 38% | < 4.70 | – | – | – | –
2 | 771786 (antisense eA*eG*e[5mC]*eT*e[5mC]*dA*dA*dA*d[5mC]*dT*dT*dT*dG*dA*dA*eG*e[5mC]*e[5mC]*eT*eT) [compound 771786] | – | 2% | 0% | 53% | 40% | < 4.70 | 56% | – | – | –
3 | 771788 (antisense e[5mC]*e[5mC]*eA*eA*e[5mC]*dT*d[5mC]*dT*dG*dA*dA*d[5mC]*dG*dG*dA*eA*eA*eG*eA*eA) [compound 771788] | 30% | 1% | 0% | 0% | 0% | < 4.70 | – | – | – | –
4 | 771793 (antisense eA*eA*eG*eT*e[5mC]*d[5mC]*d[5mC]*dT*dA*dA*d[5mC]*dG*dA*d[5mC]*d[5mC]*eA*eG*eG*e[5mC]*e[5mC]) [compound 771793] | – | 16% | 33% | 38% | 57% | 4.92 | 58% | – | – | –
5 | 771794 (antisense eG*eA*eA*eG*e[5mC]*dA*dA*dG*dT*d[5mC]*dA*d[5mC]*dT*dG*d[5mC]*e[5mC]*eT*eT*e[5mC]*eT) [compound 771794] | – | 0% | 0% | 27% | 41% | < 4.70 | 68% | – | – | –
6 | 771795 (antisense e[5mC]*eG*eT*e[5mC]*eT*dG*d[5mC]*dG*dG*d[5mC]*dA*dA*dA*dA*d[5mC]*e[5mC]*e[5mC]*eA*e[5mC]*e[5mC]) [compound 771795] | 59% | 9% | 22% | 51% | 58% | 5.10 | – | 53% | – | –
7 | 771797 (antisense eG*e[5mC]*eA*e[5mC]*eA*dG*dA*d[5mC]*dT*dG*d[5mC]*d[5mC]*dA*dA*dA*eT*e[5mC]*eA*e[5mC]*eA) [compound 771797] | – | 1% | 0% | 15% | 35% | < 4.70 | – | – | 62% | –
8 | 771799 (antisense e[5mC]*eT*eT*e[5mC]*e[5mC]*dA*dA*d[5mC]*dA*d[5mC]*dA*dT*dG*d[5mC]*dT*e[5mC]*eT*eG*e[5mC]*eA) [compound 771799] | 57% | 0% | 8% | 28% | 48% | < 4.70 | – | – | – | –
9 | 771808 (antisense e[5mC]*e[5mC]*e[5mC]*e[5mC]*eA*dA*dA*dG*dT*d[5mC]*d[5mC]*dA*d[5mC]*dG*d[5mC]*eT*e[5mC]*eA*eT*eG) [compound 771808] | – | 10% | 0% | 23% | 66% | 4.80 | 32% | – | – | 54%
10 | 771815 (antisense e[5mC]*eT*e[5mC]*e[5mC]*e[5mC]*dT*dT*dT*dT*d[5mC]*dA*d[5mC]*dT*dG*d[5mC]*eT*e[5mC]*e[5mC]*eA*e[5mC]) [compound 771815] | 70% | 0% | 0% | 22% | 46% | < 4.70 | – | – | – | –
11 | 771820 (antisense eG*eG*eT*e[5mC]*eA*dA*dA*d[5mC]*dT*dT*dG*dT*dG*dG*dT*eA*eA*eA*eA*eT) [compound 771820] | 29% | 3% | 3% | 7% | 7% | < 4.70 | – | – | – | –
12 | 771821 (antisense eG*eT*eT*e[5mC]*e[5mC]*dT*dT*dA*dT*dA*dG*dA*dT*dT*dA*eT*e[5mC]*e[5mC]*eA*eA) [compound 771821] | – | 0% | 9% | 27% | 46% | < 4.70 | – | – | 60% | –
13 | 771822 (antisense e[5mC]*eA*e[5mC]*e[5mC]*eA*dA*dA*dA*d[5mC]*dA*dA*dG*dT*dG*dT*e[5mC]*eT*eA*e[5mC]*e[5mC]) [compound 771822] | 44% | 0% | 0% | 30% | 45% | < 4.70 | – | – | – | –
14 | 771825 (antisense e[5mC]*eT*e[5mC]*eT*e[5mC]*dA*dT*dT*dT*d[5mC]*dT*dG*dG*dA*dA*e[5mC]*e[5mC]*e[5mC]*eA*e[5mC]) [compound 771825] | – | 15% | 29% | 17% | 66% | 4.82 | 76% | – | – | –
15 | 771831 (antisense e[5mC]*eG*eA*eT*e[5mC]*dA*dT*dT*dT*dT*d[5mC]*dT*dA*d[5mC]*dA*e[5mC]*e[5mC]*eT*eT*eT) [compound 771831] | 66% | 0% | 13% | 32% | 51% | 4.80 | – | – | – | –
16 | 771836 (antisense eT*eG*eT*eT*eG*dA*dG*dG*dA*d[5mC]*dT*d[5mC]*d[5mC]*d[5mC]*d[5mC]*eA*eG*e[5mC]*e[5mC]*eA) [compound 771836] | 28% | 6% | 25% | 22% | 41% | < 4.70 | – | – | – | –
17 | 771838 (antisense eG*eA*eA*e[5mC]*eT*d[5mC]*d[5mC]*dT*dG*d[5mC]*dA*dG*dG*dA*dT*eG*eA*eG*eG*eG) [compound 771838] | 53% | 0% | 24% | 26% | 43% | < 4.70 | – | – | – | –
18 | 771849 (antisense e[5mC]*eT*eA*eG*eG*d[5mC]*dT*dG*dG*dT*d[5mC]*dA*d[5mC]*dT*dT*e[5mC]*e[5mC]*eA*e[5mC]*eT) [compound 771849] | – | 25% | 0% | 10% | 35% | < 4.70 | 66% | – | – | –
19 | 771850 (antisense eT*e[5mC]*e[5mC]*e[5mC]*eA*d[5mC]*dT*dT*d[5mC]*dT*d[5mC]*d[5mC]*dT*d[5mC]*dT*eG*eG*e[5mC]*eT*eG) [compound 771850] | – | 0% | 8% | 20% | 44% | < 4.70 | 58% | – | – | –
20 | 771869 (antisense eA*eG*e[5mC]*e[5mC]*eA*dA*dG*dT*dG*dT*d[5mC]*d[5mC]*dA*dT*d[5mC]*eA*eA*eG*e[5mC]*eA) [compound 771869] | – | 10% | 0% | 24% | 43% | < 4.70 | – | – | 62% | –
21 | 771885 (antisense e[5mC]*eA*eA*eG*eT*d[5mC]*dT*d[5mC]*dT*dT*dA*d[5mC]*d[5mC]*dT*d[5mC]*eA*e[5mC]*e[5mC]*e[5mC]*eA) [compound 771885] | – | 0% | 4% | 20% | 45% | < 4.70 | – | – | 60% | –
22 | 771891 (antisense e[5mC]*eT*e[5mC]*e[5mC]*e[5mC]*dA*dA*dG*d[5mC]*d[5mC]*dT*dA*d[5mC]*dA*dT*eA*eT*eT*eT*e[5mC]) [compound 771891] | 56% | 0% | 0% | 10% | 33% | < 4.70 | – | 65% | – | –
